Laboratory results: article PMC10381309 (Journal of Fungi, 2023)

Experiments:
[1] = test system: Fonsecaea pedrosoi (CFP 00791); details: F. pedrosoi; PDA; 7 days, 37 °C; albendazole at ½ MIC
Protocol: At the end of the seven days of incubation at 37 °C, the plates were read visually. The aspect of the colonies supplemented with albendazole were compared to those of the positive melanin and inhibition melanin controls, to determine whether the color of the albendazole-supplemented cultures resembled the positive DHN-melanin or the melanin inhibition control. Pictures of the colonies were captured using a Canon EOS Rebel T7+ digital camera.

[2] = test system: Cladophialophora carrionii (CFP 00910); assay: Urease production in Christensen urea broth (OD 559 nm); assay type: cell-based; details: C. carrionii; ½ MIC albendazole; 7 and 12 days, 37 °C
Protocol: To verify urease production, three strains: Fonsecaea pedrosoi (CFP 00791) Cladophialophora carrionii (CFP 00910), and Exophiala heteromorpha (ATCC® 28180), corresponding to the three major chromoblastomycosis agents worldwide, were cultured on PDA for seven days and further cultured in Christensen urea broth in the presence and absence of albendazole at a ½ MIC concentration. Candida albicans and Cryptococcus neoformans were used as negative and positive controls of the culture medium, respectively. In brief, fungal suspensions were adjusted to a concentration of 10^6 cells/mL and used for inoculation. A volume of 500 μL of these suspensions were inoculated into 4.5 mL of Christensen urea broth and the tubes were then incubated under agitation (150 rpm) at 37 °C. At the end of seven and 12 days of incubation, the tubes were centrifuged, and a volume of 100 μL of the supernatant was transferred to a 96-well plate; this procedure was performed in triplicate. The absorbances of the samples were read on a SpectraMax plus 384 spectrophotometer (Molecular Devices, San José, CA, USA) at 559 nm, as previously described by Almeida-Paes et al.. Results were analyzed statistically using the two-way ANOVA test with multiple comparisons. p values lower than 0.05 were considered significant.

With `CCCSc1ccc2nc(NC(=O)OC)[nH]c2c1` [Albendazole] the melanin production [1] was “did not observe a decrease in melanin production” and the urease secretion [2] was “decrease in urease secretion”.
